Experimental data from patent US11666583B2, “Methods of treating cortical dementia associated wandering” (WOOLSEY PHARMACEUTICALS, INC., priority 2020, dated 2023).
Where a name gives a salt, the structure may show the parent alone.

Key:
[1] = 1-hydroxy (M3) metabolite; cited from earlier work
[2] = target: p38 mitogen-activated protein kinase (Homo sapiens, UniProt Q16539); conditions: cited from earlier work
[3] = tested on: patients with Alzheimer's Dementia (AD) and cortical vascular dementia (VaD); assay: Clinical trial of oral fasudil on frequency of wandering (Example 1); format: in vivo, human
Description: Twenty patients, 10 with AD and 10 with VaD (confirmed by […]) who are characterized wanderers, are enrolled into the study and observed for 2 weeks to confirm wandering behavior. […] The double-blind phase is followed by another treatment period of 6 weeks with the opposite treatment assignment (placebo or test drug taken with food).
• a. Walks distinctly more than average as others of same age and ability AND/OR • b. Elopement behavior≥3× per week in the opinion of the investigator Criteria for Entering First Double-Blind Treatment Period: Wanders: • a. Walks less than half the mean distance measured in observation period AND/OR • b. Elopement behavior<1× per week in the opinion of the investigator AND/OR • c. Wandering has improved in the opinion of the Investigator. 4. For entering observation period and for entering open label treatment period: • a. MMSE between 10 and 25.
Wandering is measured in term of time in motion and distance traveled (measures of persistent wandering), attempted and successful boundary transgressions (measures of elopement) and patterns like pacing a lapping (indicative of persistent wandering and/or agitation or anxiety) using an electronic tracking device. A typical tracking device would use a combination of accelerometry with positioning, using technology like RFID or Bluetooth in an indoor environment and GPS outdoors. Other wayfinding, orientation and memory-associated wandering incidents are observed and recorded manually.
The Mini Mental State Exam (MMSE), the Woolsey Wandering Questionnaire and the Revised Algase Wandering Scale are administered at baseline and at the end of each treatment period. Any change in the use of antipsychotics or anxiolytics that could affect movement during the study is strongly discouraged.

[4] = tested on: patients with wandering due to VaD; conditions: cited from earlier work
APP/PS1 transgenic mice = conditions: 5 and 10 mg/kg/day intraperitoneally; cited from earlier work
streptozotocin rats = conditions: 5 and 10 mg/kg/day intraperitoneally; cited from earlier work
[5] = tested on: triple transgenic mouse model (APP Swedish, MAPT P301L, and PSEN1 M146V); conditions: 10 mg/kg/day intraperitoneally; cited from earlier work
triple transgenic mice = conditions: 30 mg/kg and 100 mg/kg in water, 10 or 12 months of age; cited from earlier work

p38 mitogen-activated protein kinase, sequence (Q16539 whole entry): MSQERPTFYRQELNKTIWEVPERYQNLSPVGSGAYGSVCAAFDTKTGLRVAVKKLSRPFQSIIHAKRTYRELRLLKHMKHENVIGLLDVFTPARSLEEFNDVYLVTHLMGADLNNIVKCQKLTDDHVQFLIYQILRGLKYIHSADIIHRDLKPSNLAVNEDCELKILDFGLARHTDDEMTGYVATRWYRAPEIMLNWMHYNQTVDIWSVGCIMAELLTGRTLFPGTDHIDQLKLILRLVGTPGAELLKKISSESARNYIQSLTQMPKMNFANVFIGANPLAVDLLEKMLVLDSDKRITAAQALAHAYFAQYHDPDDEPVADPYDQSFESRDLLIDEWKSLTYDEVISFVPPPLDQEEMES

O=S(=O)(c1cccc2c(O)nccc12)N1CCCNCC1 [M3]
half-life [1]: about 8 hours

O=c1ncn2nc(Sc3ccc(F)cc3F)ccc2c1-c1c(Cl)cccc1Cl [Neflamapimod]
primary endpoint of improving episodic memory ([2]; Phase 2): failed | tau in the cerebrospinal fluid ([2]; Phase 2): reducing tau | Aβ deposition ([2]; humans): no effect

O=S(=O)(c1cccc2cnccc12)N1CCCNCC1 [fasudil, Hexahydro-1-(5-isoquinolinesulfonyl)-1H-1,4-diazepine monohydrochloride hemihydrate]
measures of caregiver burden ([3]; on drug, 90 mg/day): significant effect | reduction in wandering, at least one item of the RAWS and/or the WWQ ([3]; oral 90 mg/day (30 mg TID), 6 weeks, AD and cortical VaD wanderers): significant reduction | mean increase in MMSE score ([3]; persistent wanderers, 90 mg/day): greater than 3 points | reduction of activity levels ([3]; persistent wanderers, on drug as compared to placebo, 90 mg/day): about 50% | wayfinding errors and other problematic behaviors ([3]; sporadic wanderers, while on drug): significant reduction | wandering symptoms ([4]; patient with Binswanger-type cerebral infarction, within weeks of beginning treatment): disappeared and remained absent for the duration of treatment | wayfinding symptoms ([4]; patient with sequelae of cerebral bleeding and multiple lacunar infarctions (lacunar dementia)): disappeared quickly and remained absent for the duration of treatment | latency distance and quadrant time in the Morris water maze (APP/PS1 transgenic mice): improved | latency distance and quadrant time in the Morris water maze (streptozotocin rats): improved | ß-amyloid plaques in vivo [5]: reduce ß-amyloid plaques | spatial memory (triple transgenic mice): did not observe improvements
